Source: patent US10413556B1, “Production of insulin by testosterone olfaction” (priority 2019, dated 2019)
Several values for one entry are separate records, joined by “and”; a condition that tells them apart may be missing. Identical values can stand only once.

How the values were obtained:
[1] = system: progesterone production; assay: Progesterone olfaction in postmenopausal women; assay type: in vivo; details: 10 postmenopausal women; unpublished studies
From the text: (§1) These studies raised the question: is this action by olfaction unique to testosterone or can the effect be observed with other hormones? To answer this question, Applicant studied progesterone olfaction in 10 postmenopausal women. Progesterone is the primary female sex hormone and testosterone is the primary male sex hormone. […] This is a ground-breaking discovery: smelling the hormones that have been tested caused the body to produce the hormone that is smelled. However, it is still unknown whether hormone olfaction will work with hormones other than sex hormones.

[2] = system: blood sugar level; assay: Blood sugar level in men before and after testosterone olfaction; assay type: in vivo
Experimental: To evaluate the possible role of testosterone in blood sugar reduction in diabetes type 2, the following protocol was designed.
Ten men between the ages of 30 to 90 volunteered to participate in this study as subjects. Approximately one and a half hours after having a meal the subject came to Applicant's office. Prior to the testosterone olfaction the blood sugar level was measured.
The subject produced an adequately sized drop of blood from a finger using a lancing device. The blood sugar was measured with a Contour Blood Glucose Monitoring System, Model 9546 C, Serial Number FB00450. The drop of blood was picked up by a Contour blood glucose test strip 7097C specific for the instrument and within the usable date range. This value was recorded as mg/dL.
A drop of pure testosterone diluted 1:1000 in ethanol was sprayed onto the palm of the hand and smelled by the subject. […] This concentration more efficient than the undiluted hormone.
A second blood drop was immediately taken and measured and recorded in the same manner as described above.

[3] = system: free testosterone production; assay: Testosterone production after olfaction of testosterone or truffle extract; assay type: in vivo; details: olfaction of pure testosterone; unpublished research
From the text: Olfaction, the sense of smell, is critical for the survival of almost all creatures. Humans are able to distinguish over 10,000 different odor molecules. With every inhalation, currents of air swirl through the nostrils over the bony turbinates in the nose that contain receptors in the olfactory epithelium. Olfactory mucosa protects the olfactory epithelium and allows odors to dissolve for detection by olfactory receptors. The cilia projecting from the olfactory knob contain receptors for odorants. The cilia project from the knob directly into the […]. The interaction of the right molecule with the right receptor causes a structural transformation of the receptor, which gives rise to an electrical signal to the olfactory bulb and thence to the areas in the limbic brain that perceive it as the original smell.
as §1

[4] = system: insulin resistance; details: type 2 diabetic men with low testosterone, weekly injections for 24 weeks; cited from earlier work

In the case of `CC(=O)[C@H]1CC[C@H]2[C@@H]3CCC4=CC(=O)CC[C@]4(C)[C@H]3CC[C@]12C` [progesterone], the “progesterone production after olfaction” value [1] is reported as “does initiate production of progesterone”.
For `C[C@]12CC[C@H]3[C@@H](CCC4=CC(=O)CC[C@@]43C)[C@@H]1CC[C@@H]2O` [testosterone], the “percent reduction of sugar level, average for all ten” value ([2]; average of ten subjects, after testosterone olfaction) was 36%, the “PERCENT CHANGE of blood sugar” value ([2]; individual subject, before vs after olfaction of testosterone 1:1000 in ethanol) was 56% and 30% (2×) and 38% and 19% and 17% and 34% and 70% and 53% and 12% and the “blood sugar AFTER OLFACTION” value ([2]; individual subject, measured immediately after smelling testosterone diluted 1:1000 in ethanol, about 1.5 h after a meal, finger blood) was 86 mg/dL (2×) and 99 mg/dL (2×) and 109 mg/dL and 107 mg/dL and 130 mg/dL and 158 mg/dL and 98 mg/dL and 92 mg/dL. The “effect of other concentrations compared with 1:1000 dilution” value ([2]; prior studies, other concentrations of testosterone) was “essentially the same effect”, the “effect on blood sugar level” value ([2]; testosterone olfaction used alone, ten men) was “lowers the blood sugar level” and the “time in which olfaction lowers blood sugar” value ([2]; time to lance the finger, collect the blood and test) was “about 30 seconds”. The “testosterone production after olfaction” value [3] was “does initiate testosterone production” and the “ability to utilize insulin” value [4] was “improved”.
